# Counter-ions that a name gives are not always drawn.
# What was measured:
# [1] = microemulsions compared to a hydrogel; cited from earlier work
# [2] = tested on: Carrageenan-induced inflammation in the rear right footpad; experiment: Carrageenan-induced footpad inflammation, foot thickness; format: in vivo, mice; details: for reduction of inflammation (foot thickness): microemulsion 10 mg/ml VB12 analog, 20 microL on shaved belly, 14 days; for reduction of inflammation (foot thickness) vs untreated animals: microemulsion 10 mg/ml, topical on shaved belly, FIG. 8
# [3] = Distribution of 125I-labeled proteins after transdermal application in a microemulsion; details: conscious Balb/C mice; for counts in the organs of the intestine: presumed due to grooming
# B16 melanoma line = experiment: Topical treatment of B16 melanoma in mice; details: microemulsion 10 mg/ml, 20 microlitre, 2 times per day, after 4 days
# [4] = Weight loss microemulsion in overweight Swiss mice; format: in vivo; details: topical microemulsion 1 mg/ml daily
# Method: A microemulsion for topical weight loss was prepared according to the methods described in Examples 1 and 7, and included insulin, or insulin-like growth factor 1 (IGF1) or GHRP-6 at a final concentration of 1 mg/ml. A standardised volume of microemulsion was applied daily (TD) to an area of shaved skin on the belly of conscious Swiss strain mice. A standardised volume of each of insulin, or insulin-like growth factor 1 (IGF1) or GHRP-6 at a final concentration of 1 mg/ml in saline was injected sub cutaneously (SC) into the belly region of Swiss strain mice. Animal weights were measured 3 times per week. Following 2 weeks of treatment the mice were euthanased and their tissues removed and weighed. The weight of the animals with time is plotted in FIG. 11. It can be seen that there was a decrease in body weight of animals treated with the topical insulin of up to 15% within 2 weeks (FIG. 11).
molecule,measurement,setting,value
CCCNC(C)C(=O)Nc1ccccc1C (stereo not shown) [prilocaine hydrochloride],increase of transdermal flux,[1],~10 times
"C/C1=C2/[N-][C@H]([C@H](CC(N)=O)[C@@]2(C)CCC(=O)NC[C@@H](C)OP(=O)([O-])O[C@H]2[C@@H](O)[C@@H](n3cnc4cc(C)c(C)cc43)O[C@@H]2CO)[C@]2(C)N=C(/C(C)=C3N=C(/C=C4N=C1[C@@H](CCC(N)=O)C\4(C)C)[C@@H](CCC(N)=O)[C@]\3(C)CC(N)=O)[C@@H](CCC(N)=O)[C@]2(C)CC(N)=O.[Co+3].[OH-] [hydroxycobalamin, reference compound]",reduction of inflammation (foot thickness),"[2]; C57/BI6 mice, FIG. 7",active in reducing inflammation
H-Met-Gln-Ile-Asn-Ser-OH [MLIF-B],reduction of inflammation (foot thickness) vs untreated animals,[2]; C57/BI6 mice,active in reducing inflammation
EGF: 125I-labeled Epidermal Growth Factor in a microemulsion,"appearance of 125I in skin, muscle and shaved area","[3]; after 3 hours, FIG. 3","rapid appearance of ^125I in skin, muscle and the shaved area of the skin"
same,counts in the organs of the intestine,[3]; after 3 hours,"appearance of counts in the stomach, SI-1, SI-2, caecum and faeces"
O=c1[nH]cc(F)c(=O)[nH]1 [5-fluorouracil],growth rate of the tumour,B16 melanoma line,reduction in growth rate of the tumour
C/C1=C2/[N-][C@H]([C@H](CC(N)=O)[C@@]2(C)CCC(=O)NC[C@H](C)OP(=O)([O-])O[C@H]2[C@@H](O)[C@@H](n3cnc4cc(C)c(C)cc43)O[C@@H]2CO)[C@]2(C)N=C(/C(C)=C3N=C(/C=C4N=C1[C@@H](CCC(N)=O)C\4(C)C)[C@@H](CCC(N)=O)[C@]\3(C)CC(N)=O)[C@@H](CCC(N)=O)[C@]2(C)CC(N)=O.[Co+2] [cobalamin],reduction of inflammation (foot thickness),"[2]; C57/BI6 mice, FIG. 7",active in reducing inflammation
H-Met-Gln-Glu-Asn-Ser-OH [MLIF-A],reduction of inflammation (foot thickness) vs untreated animals,[2]; C57/BI6 mice,active in reducing inflammation
adalimumab,level of inflammation in the rear right foot-pad vs untreated animals,"[2]; microemulsion, TNFRII-Fc 5 mg/ml or adalimumab 4 mg/ml, topical, FIG. 9",significantly lower levels of inflammation
C/C1=C2/[N-][C@H]([C@H](CC(N)=O)[C@@]2(C)CCC(=O)NC[C@@H](C)OP(=O)([O-])O[C@H]2[C@@H](O)[C@@H](n3cnc4cc(C)c(C)cc43)O[C@@H]2CO)[C@]2(C)N=C(/C(C)=C3N=C(/C=C4N=C1[C@@H](CCC(N)=O)C\4(C)C)[C@@H](CCC(N)=O)[C@]\3(C)CC(N)=O)[C@@H](CCC(N)=O)[C@]2(C)CC(N)=O.[CH2-][C@H]1O[C@@H](n2cnc3c(N)ncnc32)[C@H](O)[C@@H]1O.[Co] [adenosyl-cobalamin],comparison of reduction in inflammation among the compositions,"[2]; C57/BI6 mice, VB12 analog microemulsions, FIG. 7",greatest reduction in inflammation
same,reduction of inflammation (foot thickness),"[2]; C57/BI6 mice, FIG. 7",active in reducing inflammation
same,reduction of inflammation (foot thickness) vs untreated animals,[2]; C57/BI6 mice,active in reducing inflammation
same,level of inflammation in the rear right foot-pad vs untreated animals,"[2]; C57/BI6 mice, microemulsions of Example 13, topical on shaved belly, FIG. 6",significantly lower level of inflammation
H-Met-Gln-Met-Asn-Ser-OH [MLIF-C],reduction of inflammation (foot thickness) vs untreated animals,[2]; C57/BI6 mice,active in reducing inflammation
insulin: insulin in a microemulsion (125I-labeled in Example 5; 1 mg/ml in Example 20),"appearance of 125I in skin, muscle and shaved area","[3]; overnight, FIG. 4","rapid appearance of ^125I in skin, muscle and the shaved area of the skin"
same,counts in the organs of the intestine,[3]; overnight,"appearance of counts in the stomach, SI-1, SI-2, caecum and faeces"
same,change of organ weights compared with other groups,"[4]; 2 weeks, FIG. 10",greatest change
same,muscle mass,"[4]; 2 weeks, FIG. 10",increased
same,weight of skin,"[4]; 2 weeks, FIG. 10",significantly reduced
same,decrease in body weight,"[4]; within 2 weeks, FIG. 11",up to 15%
N.N.O=C([O-])C1(C(=O)[O-])CCC1.[Pt+2] [Carboplatin],body weight of the animals,B16 melanoma line,no reduction in body weight
same,growth rate of the tumour,B16 melanoma line,reduction in growth rate of the tumour
cyanocobalamin [reference compound],reduction of inflammation (foot thickness),"[2]; C57/BI6 mice, FIG. 7",active in reducing inflammation
N.N.[Cl][Pt][Cl] [Cis-Platinum],body weight of the animals,B16 melanoma line,no reduction in body weight
same,growth rate of the tumour,B16 melanoma line,reduction in growth rate of the tumour

# — patent publication US20070243132A1, “Transdermal delivery of pharmaceutical agents” (priority 2005, published 2007)
